Measured values as given in patent US8785418B2, “Lyophilization cakes of proteasome inhibitors” (Cephalon, Inc., priority 2009, dated 2014).

Key:
[1] = tested on: angiogenesis; conditions: in vitro; cited from earlier work
[2] = tested on: RANKL-induced osteoclastoenesis; conditions: in vitro; cited from earlier work
[3] = Stability of Compound 1 drug substance; format: physicochemical
Source text: Piva, R. R., et al., Blood, 1 Mar. 2008, vol 111, No. 5, p 2765-2775. […] Id.
Compound 1 is currently undergoing clinical trials.

[4] = tested on: normal human epithelial cells, bone marrow progenitors, and bone marrow-derived stromal cells; conditions: cited from earlier work
[5] = Hydrolysis of Compound 10 in aqueous solution; format: physicochemical
Method: Mannitol (39.2 mg) and Kleptose® HP (hydroxypropyl-β-cyclodextrin; 49 mg) are dissolved in sterile water for injection (599 mg) at room temperature. Compound 10 (1.167 mg) is dispersed in tert-butanol (312 mg) by magnetic stirring protected from light at room temperature during 10 minutes. A few mL of the Mannitol/Kleptose® solution is poured into the Compound 10 dispersion in order to solubilize the Compound 10. After forming a solution, the remaining Mannitol/Kleptose® solution is added. The solution is stirred for a few minutes while protected from light. In Formulation 7, the pH is adjusted with phosphoric acid (2M) down to pH 4.0±0.2. In Formulation 8, the pH is about 8 and is not adjusted. The pre-lyophilization solution is filtered through a sterile disposable PVDF filter of 0.22 μm (Stericup Millipore®) to form a clear solution. 4 mL of the filtered pre-lyophilization solution is transferred into a 10 mL bottle and then freeze-dried.
Analysis of the pre-lyophilization solutions for Formulations 7 and 8 were performed at T0 and after 48 hours storage at 25° C. Compound 1 was analyzed because Compound 10 is known to convert to Compound 1 in aqueous solution.

Row | Molecule | Anti-angiogenic activity [1] | RANKL-induced osteoclastoenesis [2] | Stability of the compound ([3]; exposure to air and/or light, some batches degrade at temperatures as low as 5° C.) | Stability in solution ([3]; solution) | Cytotoxicity profile [4] | Hydrolysis in aqueous solution ([5]; aqueous solution, converts to Compound 1) | Compound 10 remaining in obtained lyophilized cake ([5]; lyophilized cake of Formulations 7 and 8 (4 mL fill))
1 | CC(C)C[C@H](NC(=O)[C@@H](NC(=O)c1cccc(-c2ccccc2)n1)[C@@H](C)O)B(O)O [Compound 1, [(1R)-1-[[(2S,3R)-3-Hydroxy-2-[[(6-phenylpyridin-2-yl)carbonyl]amino]-1-oxobutyl]amino]-3-methylbutyl]boronic acid] | strong anti-angiogenic activity | represses | unstable and subject to degradation upon exposure to air and/or light | unstable in solution | favorable cytotoxicity profile |  | 
2 | 6-(2S,3R)-N-[(1R)-1-(1,3,6,2-dioxazaborocan-2-yl)-3-methylbutyl}-3-hydroxy-2-{(6-phenylpyridin-2-yl)formamido]butanamide [Compound 10] |  |  |  |  |  | readily hydrolyzed | < 0.01 mg
